Data on 1 compound can be found in US20230235409A1, “METHOD OF PREDICTING THERAPEUTIC RESPONSE AND PROGNOSIS OF METASTATIC BREAST CANCER TO CHEMOTHERAPEUTIC AGENTS, AND TREATING METASTATIC BREAST CANCER” (Samsung Life Public Welfare Foundation, priority 2021, published 2023).

This test relates to premenopausal HR+/HER2− metastatic breast cancer. Kind of test: Kaplan Meier PFS analysis of capecitabine-treated patients by five-gene marker combination. Type of test: in vivo.

Experimental: Among 141 premenopausal HR+/HER2− MBC patients, a tumor sample was isolated from a group (n=62) administered with capecitabine, and sequencing was performed on the sample. CancerSCAN™ targeted panel sequencing was performed to detect 375 cancer-related gene variations, and transcriptome analysis was performed to detect overall gene expression patterns.
A univariate Cox proportional hazard model was analyzed for each genetic variation/CNV, the p-value derived by the log-rank test was defined as a p-value cutoff of 0.05 as the criterion for a statistically significant difference, and 30 biomarkers with p-value<0.05 were selected as candidate markers. […] In other words, the description of “NF2+FAT3” includes the case where there exists a mutation in either NF2 or FAT3 gene.

For `CCCCCOC(=O)Nc1nc(=O)n([C@@H]2O[C@H](C)[C@@H](O)[C@H]2O)cc1F` [capecitabine], the “median PFS” value (mutant group (mutation in NF2, FAT3, LRP1B, PTEN or RAD50), capecitabine-administered group n=62, FIG. 3) is 12 months. For the same compound, the “risk of mutant group relative to normal group (WT), PFS” value (mutant group vs WT (no mutation in all five genes), capecitabine-administered patients, FIG. 3) was “about 5 times”.
